Assay results taken from patent publication US20220023269A1, “Methods Of Treating Diabetes In Severe Insulin-Resistant Diabetic Subjects” (Balticgruppen Bio AB, priority 2018, published 2022).

How the values were obtained:
hIAPPtg islets = test: Ex vivo islet amyloid assay; type: cell-based, mouse; conditions: 22 mM glucose
Method: Islets amyloid was quantification was done on pancreatic tissues isolated from hIAPPtg mice on HFD for 16 weeks (n=7 mice/n=69 islets) and hIAPPtg mice on HFD for 9 weeks then switched to test material-HFD (2 mg/g) for 7 weeks (n=5 mice/n=48 islets). Isolated pancreases was direct frozen, sectioned, and amyloid content quantified by staining with Thioflavin-S as previously described (Reference 2). For ex vivo analyses, islets were isolated by collagenase digestion of the pancreas (Reference 1) and cultured in RPMI medium 1640 (GIBCO #11879-0) supplemented with 11.1 or 22.2 mM glucose (GIBCO #A24940-01), 1% fetal bovine serum (GIBCO #10500), 50 U; μg/ml Pen/Strep (Gibco #15140-122), 10 mM Hepes (Umeå University, Laboratory medicine), 1 mM sodium pyruvate (GIBCO #11360-039) and 0.1% 2-Mercaptoethanol (Sigma #M3148). 0, 2.5, 5.0, and 10 μM test material were added from day 0 of culture. For assessing the effect of autophagy inhibition, 3-Methyladenine (3-MA, Aldrich #M9281), 5 μM, was added from day 0 of culture in combination with test material, 5 μM. The control contained DMSO 1:2000. Medium and compounds were changed every second day. After 92 hours of treatment islets were embedded, sectioned and amyloid content quantified by staining with Thioflavin-S as previously described (Reference 2). A minimum of 3 independent experiments was evaluated.

PP2Ca = molecular target: T1, PP2Ca (Homo sapiens, UniProt P35813); test: PP2C phosphatase activity assay; type: biochemical; conditions: 5, 10 or 20 μM
T1 construct: purchased Abcam ab51205
T1 sequence (P35813 whole entry): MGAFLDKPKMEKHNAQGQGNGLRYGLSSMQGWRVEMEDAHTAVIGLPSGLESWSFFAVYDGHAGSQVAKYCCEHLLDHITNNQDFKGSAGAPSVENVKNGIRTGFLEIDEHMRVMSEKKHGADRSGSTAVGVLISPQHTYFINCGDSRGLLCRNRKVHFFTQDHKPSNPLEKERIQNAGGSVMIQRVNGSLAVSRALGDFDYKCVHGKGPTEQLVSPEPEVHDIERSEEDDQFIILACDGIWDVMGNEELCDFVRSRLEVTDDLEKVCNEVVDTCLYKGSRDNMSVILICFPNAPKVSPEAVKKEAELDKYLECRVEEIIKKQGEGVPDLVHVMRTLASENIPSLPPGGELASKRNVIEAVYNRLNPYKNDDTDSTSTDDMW
Method: 3 ng/μl PP2Ca (Abcam ab51205) and 5, 10 or 20 μM test material in buffer (50 mM Tris-HCL pH 7.5, 0.1 mM EDTA, 0.5 mM DTT, 5 mM MgCl2) was used in the Sensolyte FDP protein phosphatase assay kit (Anaspec #71100) according to the manufacturer's instructions to measure the activity of PP2Ca. The fluorescence intensity was measured in a Bio Tek Synergy H4 multi-mode microplate reader.

CBA mice on HFD [1] = test: In vivo lipogenesis; conditions: 2 mg/g in HFD, 5 weeks
Method: After 90 minutes 0.2-0.3 g liver were isolated and homogenised in 3 ml PBS before addition of 6 ml chloroform/methanol (2:1). Samples were mixed until phase separation no longer occurred and left at RT 30 minutes before centrifuged, 4,500 rpm, 5 minutes. The water phase was removed and 3 ml chloroform transferred to a scintillation vial and evaporated to dryness by a stream of nitrogen while standing in a 40° C. water bath. The residue was dissolved in 3 ml optiphase hisafe 3 (Perkin Elmer #1200.437) and ^3H determined for 1 minute in a Wallac 1414 counter. ^3H values were normalised to liver weight.

[2] = test system: CBA mice on HFD (DIO mice); test: CBA mice on test material-HFD (0.4, 0.8, 2 mg/g) for 7 w; type: in vivo
Method: 12 weeks old CBA mice were randomised into a HFD and three test material-HFD groups (0.4 mg/g, 0.8 mg/g, and 2 mg/g) for 7 weeks. 16-17 weeks old CBA mice on regular diet was used as controls where indicated.
Animals were housed at 12:12 hour light/dark cycle in a temperature/humidity controlled (22° C./50% humidity) room and ad libitum feeding with either standard chow (Special Diet Service #801730), high fat diet (HFD) (Research diets, Inc. #D12492) or HFD (Research diets, Inc. #D12492) custom formulated with test material at 2 mg/g test material, 0.8 mg/g test material and 0.4 mg/g test material, respectively.
All cell lines were lysed in 0.1 M Tris-HCl, pH 6.8, 2% SDS, 10 mM sodium fluoride (SIGMA #S7920), 10 mM β-glycerophosphate (SIGMA #G6376), and 1 mM sodium vanadate (SIGMA #72060) and supernatant collected after 1 minute at 14,000 rpm. Islets (human and mouse) were lysed in 0.1 M Tris-HCl, pH 6.8, 2% SDS, protease inhibitor (Roche #04 693 124 001) and phosphatase inhibitor (Roche #04 906 837 001). Right calf muscle, heart, iWAT, and interscapular BAT was crushed in a pestle using liquid nitrogen and homogenised in ice cold RIPA buffer (150 mM sodium chloride (SIGMA #S7653), 1.0% NP40 (USB), 0.5% sodium deoxycholate (SIGMA #D6750), 0.1% SDS, 50 mM Tris pH 8.0, 20 mM sodium pyrophosphate (SIGMA #71515), 10 mM sodium fluoride, 10 mM β-glycerolphosphate, 1 mM sodium vanadate and protease inhibitor cocktail (Roche #04693124001), 1 tablet/10 ml lysis buffer). The supernatant was collected after 2 min at 14,000 rpm. This procedure was repeated until all fat was eliminated and the supernatant was clear, at 4° C. Samples were analysed on 4-15% polyacrylamide gels. Values were normalised toward AMPKα, β-Actin, GAPDH or the respective non-phosphorylated counterpart. […]

CBA mice on HFD [3] = test: Indirect calorimetry measurements; type: in vivo; conditions: 11 w
Method: VO2 and VCO2 rates were measured during 3 days by indirect calorimetry in TSE PhenoMaster Calorimetry metabolic cages (TSE Systems GmbH). The respiratory exchange ratio (RER) was calculated as a ratio of VCO2 produced/VO2 consumed. […] Energy expenditure (EE) was calculated as the product of the calorific value (CV) of oxygen [=3.815+(1.232×RER)] and the volume of O2 consumed, i.e. [EE=CV×VO2 (kcal/h)] and related to lean weight.

[4] = 0.4, 0.8 and 2 mg/g in HFD, 6 w
[5] = 0.8 mg/g in HFD, light and dark periods

- activity of PP2C (PP2Ca): without inhibiting the activity of PP2C
Structure (SMILES): O=C(Nc1nc(=O)n(Cc2ccc(Cl)cc2)s1)c1ccc(Cl)cc1 [test material, 4-chloro-N-[2-[(4-chlorophenyl)methyl]-3-oxo-1,2,4-thiadiazol-5-yl]benzamide]
- preventive effect on amyloid formation in presence of autophagy inhibitor 3-MA (hIAPPtg islets; 5.0 μM test material + 5.0 μM 3-MA): significantly attenuated
- amyloid formation (Thio-S+ deposits) (hIAPPtg islets; 2.5, 5.0, 10 μM, dose-dependent): attenuated amyloid formation
- reduction of hepatic DNL (CBA mice on HFD [1]): ~45%
- expression of Cd36 and Cpt1b in BAT ([2]; 2 mg/g in HFD): significantly increased the expression of Cd36
- expression of Fas, Scd1 and Acc1 in BAT ([2]; 2 mg/g in HFD): potently reduced the expression
- weights of BAT pads ([2]; 2 mg/g in HFD, vs HFD): reduced
- weights of iWAT and eWAT fat pads ([2]; 2 mg/g in HFD, vs HFD): markedly lower weights
- dysglycemia (fasted blood glucose) [2, 4]: potently prevented
- hyperinsulinemia (fasted insulin) [2, 4]: potently prevented
- insulin resistance (HOMA-IR) [2, 4]: potently prevented
- pAMPK in calf muscle ([2]; 0.4, 0.8 and 2 mg/g in HFD, 7 w): dose-dependently increased pAMPK
- heart glycogen content ([2]; 0.8 or 2 mg/g in HFD, 7 w): reduced in a dose-dependent manner
- heart weight/tibia length ([2]; 0.8 or 2 mg/g in HFD, 7 w): did not cause an increase in heart weight/tibia length
- pAMPK levels in the heart ([2]; 0.8 or 2 mg/g in HFD, 7 w): significantly increased pAMPK levels in the heart
- Cpt1b mRNA levels in liver ([2]; DIO mice): dose-dependently increased Cpt1b
- hepatic steatosis ([2]; DIO mice): prevented and reduced hepatic steatosis
- Acc2, Fas and Scd1 mRNA levels in liver ([2]; DIO mice, dose-dependent): decreased Acc2, Fas, and Scd1 mRNA levels
- UCP1 expression in BAT and iWAT ([2]; slightly, dose-dependent): reduced UCP1 expression
- Atgl mRNA levels in iWAT ([2]; test material-HFD 7 w): increased both p-S406 ATGL levels and Atgl mRNA levels
- p-S406 ATGL levels in iWAT ([2]; test material-HFD 7 w): increased both p-S406 ATGL levels and Atgl mRNA levels
- energy expenditure (EE) (CBA mice on HFD [3]; [5]): significantly increased
- oxygen consumption (VO2) (CBA mice on HFD [3]; [5]): significantly increased
- respiratory exchange ratio (RER) (CBA mice on HFD [3]; 0.8 mg/g, day 2 light period, all 3 days dark period): significantly decreased
